ChEMBL document CHEMBL6071209, “Design, Synthesis, and Biological Evaluation of a Series of Spiro Analogues as Novel HPK1 Inhibitors” (ACS Med Chem Lett, 2024)

How the values were obtained:
[1] = Volume of distribution in BALB/c mouse at 1 mg/kg, iv measured upto 24 hrs by LC-MS/MS method; type: ADME, organism-based; conditions: in vivo
[2] = Clearance in Beagle dog at 1 mg/kg, iv measured upto 24 hrs by LC-MS/MS method; type: ADME, organism-based, Canis lupus familiaris; conditions: in vivo
[3] = Volume of distribution in Beagle dog at 1 mg/kg, iv measured upto 24 hrs by LC-MS/MS method; type: ADME, organism-based, Canis lupus familiaris; conditions: in vivo
[4] = Bioavailability in Beagle dog at 1 mg/kg, iv measured upto 24 hrs by LC-MS/MS method; type: ADME, organism-based, Canis lupus familiaris; conditions: in vivo
[5] = Volume of distribution in Sprague-Dawley rat at 1 mg/kg, iv measured upto 24 hrs by LC-MS/MS method; type: ADME, organism-based; conditions: in vivo
[6] = mouse, in vivo, po, 10 mg/kg, 24 h
[7] = mouse, in vivo, iv, 1 mg/kg, 24 h
[8] = rat, in vivo, po, 10 mg/kg, 24 h
[9] = dog, in vivo, po, 2 mg/kg, 24 h
in vivo [10] = conditions: BALB/c, mouse, iv, 1 mg/kg
in vivo [11] = conditions: BALB/c, mouse, po, 10 mg/kg
in vivo [12] = conditions: Sprague-Dawley, rat, iv, 1 mg/kg
in vivo [13] = conditions: Sprague-Dawley, rat, iv, 1 mg/kg; remark: listed apart in the source
in vivo [14] = conditions: beagle, dog, po, 2 mg/kg
in vivo [15] = conditions: Sprague-Dawley, rat, iv, 1 mg/kg; remark: listed apart in the source
in vivo [16] = conditions: BALB/c, mouse, iv, 1 mg/kg; remark: listed apart in the source

Row | Vd [1] | clearance [2] | Vd [3] | bioavailability [4] | Vd [5] | AUC/dose [6] | F [7] | AUC/dose [8] | AUC/dose [9] | clearance at 24 h (in vivo [10]) | half-life at 24 h (in vivo [11]) | clearance at 24 h (in vivo [12]) | bioavailability at 24 h (in vivo [13]) | half-life at 24 h (in vivo [14]) | half-life at 24 h (in vivo [15]) | bioavailability at 24 h (in vivo [16]) | SMILES
1 | 5 L/kg | 108 mL/min/kg | 24.2 L/kg | 4.9% | 12.5 L/kg | 224.5 ng·h/mL | 187% | 31.2 ng·h/mL | 6.5 ng·h/mL | 138 mL/min/kg | 3.7 h | 230 mL/min/kg | 38% | 1.5 h |  |  | CN(C)Cc1nc(Nc2ccc(-c3cnc4cc(F)ccn34)c3c2C(=O)NC3)ccc1C1CCOCC1
2 |  |  |  |  |  |  |  | 15.3 ng·h/mL |  |  |  |  |  |  | 1 h |  | COC1CCC2(CC1)c1ccc(Nc3ccc(-c4cnc5cc(F)ccn45)c4c3C(=O)NC4)nc1CN2C (configuration not stated)
3 |  |  |  |  |  | 290.2 ng·h/mL |  | 43.5 ng·h/mL |  | 28 mL/min/kg | 1.4 h |  |  |  | 4.1 h | 50% | O=C1NCc2c(-c3cnc4cc(F)ccn34)ccc(Nc3ccc4c(n3)CN(CCN3CC[C@@H](F)C3)C43CCOCC3)c21
